Tests used:
mGluR4 [1] = biological target: T1, mGluR4 (Homo sapiens, UniProt Q14833); assay: mGluR4 potentiation assay (Table I): response to EC20 agonist in presence of compound; assay type: cell-based; conditions: for EC50: potentiation of mGluR4 agonist response
Target sequence in this assay (Q14833 whole entry): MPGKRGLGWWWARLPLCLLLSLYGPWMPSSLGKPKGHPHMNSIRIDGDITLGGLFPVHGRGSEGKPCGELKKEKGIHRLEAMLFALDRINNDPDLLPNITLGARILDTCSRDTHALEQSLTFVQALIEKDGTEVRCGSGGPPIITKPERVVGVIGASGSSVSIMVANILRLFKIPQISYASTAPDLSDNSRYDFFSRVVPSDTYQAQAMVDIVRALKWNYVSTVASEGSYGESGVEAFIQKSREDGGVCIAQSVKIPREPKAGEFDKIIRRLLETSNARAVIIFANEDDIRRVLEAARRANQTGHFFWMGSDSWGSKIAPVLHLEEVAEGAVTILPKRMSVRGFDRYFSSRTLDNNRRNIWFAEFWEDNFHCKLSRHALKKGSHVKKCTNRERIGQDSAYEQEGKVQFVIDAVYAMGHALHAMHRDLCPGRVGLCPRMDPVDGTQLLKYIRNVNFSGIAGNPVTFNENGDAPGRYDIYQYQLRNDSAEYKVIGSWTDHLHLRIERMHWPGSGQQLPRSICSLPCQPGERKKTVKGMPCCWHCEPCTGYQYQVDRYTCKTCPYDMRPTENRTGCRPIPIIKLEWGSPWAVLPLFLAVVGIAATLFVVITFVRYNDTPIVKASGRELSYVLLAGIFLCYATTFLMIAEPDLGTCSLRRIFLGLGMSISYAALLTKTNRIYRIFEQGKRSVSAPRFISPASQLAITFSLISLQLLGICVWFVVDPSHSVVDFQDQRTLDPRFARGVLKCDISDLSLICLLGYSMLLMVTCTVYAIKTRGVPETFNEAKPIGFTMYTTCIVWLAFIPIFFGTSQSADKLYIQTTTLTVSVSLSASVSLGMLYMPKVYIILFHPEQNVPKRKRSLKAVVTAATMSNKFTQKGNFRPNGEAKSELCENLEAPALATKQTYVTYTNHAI

mGluR4 [2] = biological target: T1, mGluR4; assay: human mGluR4 potentiation in transfected CHO cells, Ca2+-sensitive fluorescent dye; assay type: cell-based; parameters: expressed in transfected cells; host or cells: CHO cells; conditions: unit inferred, read-out: hEC50
Target sequence in this assay (Q14833 33-912): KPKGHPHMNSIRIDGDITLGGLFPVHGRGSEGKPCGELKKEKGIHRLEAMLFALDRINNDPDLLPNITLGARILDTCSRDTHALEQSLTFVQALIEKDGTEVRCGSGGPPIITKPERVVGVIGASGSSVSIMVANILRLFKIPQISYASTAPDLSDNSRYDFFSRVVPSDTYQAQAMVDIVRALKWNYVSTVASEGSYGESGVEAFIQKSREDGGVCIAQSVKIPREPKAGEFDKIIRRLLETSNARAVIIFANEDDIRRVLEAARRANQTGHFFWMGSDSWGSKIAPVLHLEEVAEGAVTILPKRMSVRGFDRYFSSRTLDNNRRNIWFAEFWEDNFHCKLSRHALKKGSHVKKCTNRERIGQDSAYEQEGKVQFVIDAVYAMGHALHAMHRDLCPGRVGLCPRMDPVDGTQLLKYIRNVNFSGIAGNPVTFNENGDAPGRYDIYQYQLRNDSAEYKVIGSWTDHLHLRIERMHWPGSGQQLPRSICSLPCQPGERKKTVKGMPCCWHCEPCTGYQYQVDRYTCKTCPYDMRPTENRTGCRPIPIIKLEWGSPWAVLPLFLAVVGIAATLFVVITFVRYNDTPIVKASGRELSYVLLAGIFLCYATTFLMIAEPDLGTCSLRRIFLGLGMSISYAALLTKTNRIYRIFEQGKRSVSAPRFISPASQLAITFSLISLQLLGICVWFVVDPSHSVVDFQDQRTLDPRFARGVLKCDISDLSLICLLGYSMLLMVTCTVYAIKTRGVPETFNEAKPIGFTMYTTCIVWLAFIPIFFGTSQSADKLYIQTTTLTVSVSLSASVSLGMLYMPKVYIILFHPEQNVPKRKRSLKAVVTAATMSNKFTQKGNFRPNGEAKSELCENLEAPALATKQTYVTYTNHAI

SMILES | % Glu Max (mGluR4 [1]; maximum extent of potentiation) [%] | EC50 (mGluR4 [1]) [nM] | EC50 (mGluR4 [2]) [nM] | Emax (mGluR4 [1]; maximum extent of potentiation, read-out: % Glu Max) [%]
CC(C)Cc1ccc(S(=O)(=O)n2ccc(NC(=O)c3ccccn3)c2)cc1 [Example 17] | 30 | 258 |  | 
O=C(Nc1ccn(S(=O)(=O)c2cccc(-c3ccccc3)c2)c1)c1ccccn1 [Example 12] | 122 | 3310 |  | 
Cc1ccc(S(=O)(=O)n2ccc(NC(=O)c3nccs3)c2)cc1 [Example 51, N-(1-tosyl-1H-pyrrol-3-yl)thiazole-2-carboxamidc] |  |  | 348 | 
Cc1cc(S(=O)(=O)n2ccc(NC(=O)c3ccccn3)c2)cnc1Cl [Example 119, N-(1-((6-chloro-5-metliylpyridin-3-yl)sulfonyl)-1H-pyrrol-3-yl)picolinamide] |  |  | 249 | 
Cc1ccc(S(=O)(=O)n2ccc(NC(=O)c3ccccn3)c2)o1 [Example 142, N-(1-((5-methylruran-2-yl)sulfonyl)-1H-pyrrol-3-yl)picolinamide] |  |  | 256 | 
O=C(Nc1ccn(S(=O)(=O)Cc2cc(Cl)cc(Cl)c2)c1)c1ccccn1 [Example 35] | 156 | 3830 |  | 
O=C(Nc1ccn(S(=O)(=O)c2ccc(Cl)cc2)c1)c1ccccn1 [Example 21] | 215 | 655 |  | 
O=C(Nc1ccn(S(=O)(=O)C2CCCCC2)c1)c1ccccn1 [Example 22] | 189 | 1940 |  | 
O=C(Nc1ccn(S(=O)(=O)Cc2ccc(Cl)cc2Cl)c1)c1ccccn1 [Example 31] | 206 | 445 |  | 
N#Cc1cccc(S(=O)(=O)n2ccc(NC(=O)c3ccccn3)c2)c1 [Example 13] | 104 | 282 |  | 
Cc1ccc(S(=O)(=O)n2ccc(NC(=O)c3ccccn3)c2)cc1 [Example 20] | 188 | 57 |  | 
O=C(Nc1ccn(S(=O)(=O)Cc2ccc(Cl)c(Cl)c2)c1)c1ccccn1 [Example 34] | 159 | 828 |  | 
O=C(Nc1ccn(S(=O)(=O)Cc2ccccc2F)c1)c1ccccn1 [Example 29] | 161 | 473 |  | 
O=C(Nc1ccn(S(=O)(=O)c2ccc(OC(F)F)cc2)c1)c1ccccn1 [Example 16] | 151 | 162 |  | 
O=C(Nc1ccn(S(=O)(=O)Cc2ccc(C(F)(F)F)cc2)c1)c1ccccn1 [Example 37] | 158 | 154 |  | 
O=C(Nc1ccn(S(=O)(=O)c2ccc(C(F)(F)F)cc2)c1)c1ccccn1 [Example 23] | 85 | 413 |  | 
Cc1cccc(S(=O)(=O)n2ccc(NC(=O)c3ccccn3)c2)c1 [Example 15] | 175 | 90 |  | 
O=C(Nc1ccn(S(=O)(=O)c2ccccc2Cl)c1)c1ccccc1 [Example 46, N-(1-(2-chlorophenylsulfonyl)-1H-pyrrol-3-yl)benzamide] |  |  |  | 85

SMILES | % Glu Max (mGluR4 [1]; maximum extent of potentiation) [%] | EC50 (mGluR4 [1]) [nM] | EC50 (mGluR4 [2]) [nM] | Emax (mGluR4 [1]; maximum extent of potentiation, read-out: % Glu Max) [%]
O=C(Nc1ccn(S(=O)(=O)Cc2cccc(C(F)(F)F)c2)c1)c1ccccn1 [Example 27] | 117 | 1730 |  | 
Cc1ccnc(S(=O)(=O)n2ccc(NC(=O)c3ccccn3)c2)c1 [Example 117, N-(1-((4-mcthylpyridin-2-yl)sulfonyl)-1H-pyrrol-3-yl)picolinamide] |  |  | 1290 | 
O=C(Nc1ccn(S(=O)(=O)c2ccc(F)cc2)c1)c1ccccn1 [Example 19] | 137 | 280 |  | 
O=C(Nc1ccn(S(=O)(=O)Cc2cccc(F)c2)c1)c1ccccn1 [Example 24] | 140 | 587 |  | 
O=C(Nc1ccn(S(=O)(=O)c2ccc3c(c2)CCO3)c1)c1ccccn1 [Example 145, N-(1-((2,3-dihydrobenzoruran-5-yl)sulfonyl)-1H-pyrrol-3-yl)picolinamide] |  |  | 78.4 | 
Cc1ccc(CS(=O)(=O)n2ccc(NC(=O)c3ccccn3)c2)cc1C [Example 33] | 178 | 215 |  | 
Cc1ccc(S(=O)(=O)n2ccc(NC(=O)c3ccco3)c2)cc1 [Example 165, N-(1-tosyl-1H-pyrrol-3-yl)furan-2-carboxamidc] |  |  | 854 | 
Cc1ccccc1CS(=O)(=O)n1ccc(NC(=O)c2ccccn2)c1 [Example 28] | 164 | 1130 |  | 
CC(c1ccccc1F)S(=O)(=O)n1ccc(NC(=O)c2ccccn2)c1 (stereo not shown) [Example 99, N-(1-((1-(2-fluorophenyl)ethyl)sulfonyl)-1H-pyrrol-3-yl)picolinamidc] |  |  | 396 | 
Cc1cccc(CS(=O)(=O)n2ccc(NC(=O)c3ccccn3)c2)c1 [Example 38] | 289 | 1450 |  | 
O=C(Nc1ccn(S(=O)(=O)c2ccc(OC(F)(F)F)cc2)c1)c1ccccn1 [Example 18] | 93 | 546 |  | 
O=C(Nc1ccn(S(=O)(=O)Cc2cccc(Cl)c2)c1)c1ccccn1 [Example 25] | 132 | 839 |  | 
O=C(Nc1ccn(S(=O)(=O)Cc2ccc(F)cc2F)c1)c1ccccn1 [Example 32] | 159 | 188 |  | 
O=C(Nc1ccn(S(=O)(=O)Cc2ccccc2Cl)c1)c1ccccn1 [Example 30] | 163 | 83 |  | 
O=C(Nc1ccn(S(=O)(=O)c2ccc(C(F)(F)F)nc2)c1)c1ccccn1 [Example 120, N-(1-((6-(trifluoromethyl)pyricIin-3-yl)sulfonyl)-1H-pyrrol-3-yl)picolinamide] |  |  | 666 | 
O=C(Nc1ccn(S(=O)(=O)c2cccc(Cl)c2)c1)c1ccccn1 [Example 14] | 139 | 106 |  | 
O=C(Nc1ccn(S(=O)(=O)c2ccccc2OC(F)(F)F)c1)c1ccccn1 [Example 7] | 90 | 203 |  | 

— patent US20130338154A1, “MGLUR4 ALLOSTERIC POTENTIATORS, COMPOSITIONS, AND METHODS OF TREATING NEUROLOGICAL DYSFUNCTION” (Vanderbilt University, priority 2009, published 2013)
